Like-named read-outs stand apart in the source and are kept apart here.
Molecular target: GCN2 (Homo sapiens, UniProt Q9P2K8)
Experiment: GCN2 enzymatic endpoint assay: phosphorylation of GFP-eIF2α measured by TR-FRET (Lanthascreen)
Assay type: biochemical
Procedure, shortened: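 Kinase activity is measured as phosphorylation of GFP-labelled eIF2α (80 nM) with ATP at 2 μM. Incubation runs 90 minutes at room temperature before EDTA quench and terbium-antibody detection.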

[1] = tested as described in Example 77, compound and/or hydrochloride, dihydrochloride or trifluoroacetic acid salt, read-out: IC 50 Activity

GCN2, sequence (Q9P2K8 whole entry): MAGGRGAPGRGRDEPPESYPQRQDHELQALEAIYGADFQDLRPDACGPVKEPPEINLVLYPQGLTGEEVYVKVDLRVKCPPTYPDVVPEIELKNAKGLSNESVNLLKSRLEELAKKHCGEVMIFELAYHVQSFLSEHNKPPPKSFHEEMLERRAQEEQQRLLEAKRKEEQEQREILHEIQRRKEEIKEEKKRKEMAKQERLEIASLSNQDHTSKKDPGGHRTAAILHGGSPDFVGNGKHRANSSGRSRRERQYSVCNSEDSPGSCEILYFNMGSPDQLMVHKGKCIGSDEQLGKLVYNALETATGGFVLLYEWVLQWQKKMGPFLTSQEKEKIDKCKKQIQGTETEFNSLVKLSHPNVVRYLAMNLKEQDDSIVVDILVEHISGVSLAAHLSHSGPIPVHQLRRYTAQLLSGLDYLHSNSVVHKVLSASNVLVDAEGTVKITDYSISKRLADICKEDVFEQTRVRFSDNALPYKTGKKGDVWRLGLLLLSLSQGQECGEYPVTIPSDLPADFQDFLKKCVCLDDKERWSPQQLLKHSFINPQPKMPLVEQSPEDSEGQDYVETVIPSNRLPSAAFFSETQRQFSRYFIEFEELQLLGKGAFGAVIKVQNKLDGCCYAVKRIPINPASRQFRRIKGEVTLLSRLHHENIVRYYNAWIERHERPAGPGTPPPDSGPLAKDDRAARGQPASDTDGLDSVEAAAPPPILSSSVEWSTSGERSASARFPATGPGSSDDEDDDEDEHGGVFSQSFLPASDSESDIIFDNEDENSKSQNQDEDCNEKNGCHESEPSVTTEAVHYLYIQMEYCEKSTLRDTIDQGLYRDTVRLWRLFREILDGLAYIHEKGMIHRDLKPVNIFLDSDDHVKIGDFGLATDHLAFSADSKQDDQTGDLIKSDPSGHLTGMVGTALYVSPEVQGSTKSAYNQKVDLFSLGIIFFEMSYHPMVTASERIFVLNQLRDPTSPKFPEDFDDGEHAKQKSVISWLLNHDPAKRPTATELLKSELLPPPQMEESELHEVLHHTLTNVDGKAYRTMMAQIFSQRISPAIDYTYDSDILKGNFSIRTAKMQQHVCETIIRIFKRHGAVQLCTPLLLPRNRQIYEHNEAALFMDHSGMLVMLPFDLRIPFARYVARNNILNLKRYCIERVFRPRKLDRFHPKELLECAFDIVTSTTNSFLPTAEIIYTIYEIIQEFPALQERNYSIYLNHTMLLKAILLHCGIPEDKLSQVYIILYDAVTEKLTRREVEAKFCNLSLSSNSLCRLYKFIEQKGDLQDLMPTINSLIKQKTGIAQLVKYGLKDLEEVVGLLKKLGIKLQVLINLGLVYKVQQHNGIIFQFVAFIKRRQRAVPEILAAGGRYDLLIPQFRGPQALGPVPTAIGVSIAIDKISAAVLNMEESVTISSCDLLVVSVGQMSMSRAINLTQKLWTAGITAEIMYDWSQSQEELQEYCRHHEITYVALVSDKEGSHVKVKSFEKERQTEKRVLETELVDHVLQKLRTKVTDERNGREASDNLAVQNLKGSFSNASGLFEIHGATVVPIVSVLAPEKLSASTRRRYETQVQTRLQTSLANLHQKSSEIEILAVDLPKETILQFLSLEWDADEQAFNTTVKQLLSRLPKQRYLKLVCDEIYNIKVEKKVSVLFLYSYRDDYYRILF

SMILES | IC50 [1] | IC50 (GCN2 biochemical IC50, 4 nM GCN2, 2 μM ATP, 80 nM GFP-eIF2α, 90 min RT, read-out: GCN2 activity)
CNC(=O)[C@]1(C)CC[C@@H](Nc2ncc3c(Br)nn(-c4cc(N5CCNCC5)c5ncccc5c4)c3n2)C1 | 25 to 200 nM | 
Cc1nnc(-c2ccc(-n3nc(Br)c4cnc(N[C@@H]5CC[C@@](C)(CO)C5)nc43)cc2)s1 [[(1R,3R)-3-[[3-bromo-1-[4-(5-methyl-1,3,4-thiadiazol-2-yl)phenyl]pyrazolo [3,4-d]pyrimidin-6-yl]amino]-1-methyl-cyclopentyl]methanol] | 25 to 200 nM | 
CNC(=O)[C@]1(C)CC[C@@H](Nc2ncc3c(Br)nn(-c4ccc(-c5ncc(C)[nH]5)cc4)c3n2)C1 [(1R,3R)-3-[[3-bromo-1-[4-(5-methyl-1H-imidazol-2-yl)phenyl]pyrazolo[3,4-d]pyrimidin-6-yl]amino]-N,1-dimethyl-cyclopentanecarboxamide] | 25 to 200 nM | 
Cn1ccnc1-c1ccc(-n2nc(Br)c3cnc(N[C@@H]4CC[C@@H](C(=O)NCCS(C)(=O)=O)C4)nc32)cc1 [(1R,3R)-3-((3-bromo-1-(4-(1-methyl-1H-imidazol-2-yl)phenyl)-1H-pyrazolo[3,4-d]pyrimidin-6-yl)amino)-N-(2-(methyl-sulfonyl)ethyl)cyclopentane-1-carboxamide] | 500 to 1000 nM | 
Cc1nnc(-c2ccc(-n3nc(Br)c4cnc(N[C@@H]5CC[C@@](C)(N)C5)nc43)cc2)s1 | 25 to 200 nM | 
O=C([C@@H]1CC[C@@H](Nc2ncc3c(Br)nn(-c4ccc5ncccc5c4)c3n2)C1)N1CCC(O)(C(F)(F)F)CC1 [((1R,3R)-3-((3-bromo-1-(quinolin-6-yl)-1H-pyrazolo[3,4-d]pyrimidin-6-yl)amino)cyclo-pentyl)(4-hydroxy-4-(trifluoromethyl)piperidin-1-yl)methanone] | 200 to 500 nM | 
CNC(=O)[C@]1(C)CC[C@@H](Nc2ncc3c(Br)nn(-c4ccc(F)c(CCN)c4)c3n2)C1 [(1R,3R)-3-[[1-[3-(2-aminoethyl)-4-fluoro-phenyl]-3-bromo-pyrazolo[3,4-d]pyrimidin-6-yl]amino]-N,1-dimethyl-cyclopentane-carboxamide] | 25 to 200 nM | 
Cn1cnc2ccc(-n3nc(Br)c4cnc(N[C@@H]5CC[C@@](C)(O)C5)nc43)cc2c1=O [Example 70, 6-(3-bromo-6-(((1R,3R)-3-hydroxy-3-methylcyclopentyl)amino)-1H-pyrazolo[3,4-d]pyrimidin-1-yl)-3-methylquinazolin-4(3H)-one] |  | < 25 nM
CNC(=O)[C@]1(C)CC[C@@H](Nc2ncc3c(Br)nn(-c4cc(C(C)O)c5nccnc5c4)c3n2)C1 (stereo partly drawn) [(1R,3R)-3-[[3-bromo-1-[8-(1-hydroxy-ethyl)quinoxalin-6-yl]pyrazolo[3,4-d]pyrimidin-6-yl]amino]-N,1-dimethyl-cyclopentanecarboxamide] | 25 to 200 nM | 
CNC(=O)[C@]1(C)CC[C@@H](Nc2ncc3c(Br)nn(-c4ccc5c(=O)n(C)cnc5c4)c3n2)C1 | 25 to 200 nM | 
O=C(NCCO)[C@@H]1CC[C@@H](Nc2ncc3c(Br)nn(-c4cc(F)c5ncccc5c4)c3n2)C1 [(1R,3R)-3-((3-bromo-1-(8-fluoroquinolin-6-yl)-1H-pyrazolo[3,4-d]pyrimidin-6-yl)amino)-N-(2-hydroxyethyl)cyclopentane-1-carboxamide] | 25 to 200 nM | 
CNC(=O)[C@]1(C)CC[C@@H](Nc2ncc3c(Br)nn(-c4cc(CNS(C)(=O)=O)c5nccnc5c4)c3n2)C1 [(1R,3R)-3-[[3-bromo-1-[8-(methane-sulfonamidomethyl)quinoxalin-6-yl]pyrazolo[3,4-d]pyrimidin-6-yl]amino]-N,1-dimethyl-cyclopentanecarboxamide] | 25 to 200 nM | 
CNC(=O)[C@]1(C)CC[C@@H](Nc2ncc3c(Br)nn(-c4ccc5nc(N6CCN(C)CC6)ncc5c4)c3n2)C1 [(1R,3R)-3-[[3-bromo-1-[2-(4-methylpiperazin-1-yl)quinazolin-6-yl]pyrazolo[3,4-d]pyrimidin-6-yl]amino]-N,1-dimethyl-cyclo-pentanecarboxamide; 2,2,2-trifluoroacetic acid] | 25 to 200 nM | 
Cc1nnc(-c2ccc(-n3nc(Br)c4cnc(N[C@@H]5CC[C@@H](NC(=O)C(C)C)C5)nc43)cc2)s1 [N-[(1R,3R)-3-[[3-bromo-1-[4-(5-methyl-1,3,4-thiadiazol-2-yl)phenyl]pyrazolo [3,4-d]pyrimidin-6-yl]amino]cyclopentyl]-2-methyl-propanamide] | 25 to 200 nM | 
COCCNC(=O)[C@@H]1CC[C@@H](Nc2ncc3c(Br)nn(-c4ccc(-c5ccn[nH]5)cc4)c3n2)C1 [(1R,3R)-3-((1-(4-(1H-pyrazol-5-yl)phenyl)-3-bromo-1H-pyrazolo[3,4-d]pyrimidin-6-yl)amino)-N-(2-methoxyethyl)cyclopentane-1-carboxamide] | 200 to 500 nM | 
CNC(=O)[C@]1(C)CC[C@@H](Nc2ncc3c(Br)nn(-c4cc(Cl)cc(CCC#N)c4)c3n2)C1 | 25 to 200 nM | 
CNC(=O)C1(C)CC[C@@H](Nc2ncc3c(Br)nn(-c4ccc5cnccc5c4)c3n2)C1 (mixture of isomers) | 200 to 500 nM | 

SMILES | IC50 [1] | IC50 (GCN2 biochemical IC50, 4 nM GCN2, 2 μM ATP, 80 nM GFP-eIF2α, 90 min RT, read-out: GCN2 activity)
COCCNC(=O)[C@@H]1CC[C@@H](Nc2ncc3c(Br)nn(-c4ccc5nccnc5c4)c3n2)C1 [(1R,3R)-3-((3-bromo-1-(quinoxalin-6-yl)-1H-pyrazolo[3,4-d]pyrimidin-6-yl)amino)-N-(2-methoxyethyl)cyclopentane-1-carboxamide] | 25 to 200 nM | 
O=C([C@@H]1CC[C@@H](Nc2ncc3c(Br)nn(-c4ccc5ncccc5c4)c3n2)C1)N1CCC(O)(CO)CC1 [((1R,3R)-3-((3-bromo-1-(quinolin-6-yl)-1H-pyrazolo[3,4-d]pyrimidin-6-yl)amino)cyclo-pentyl)(4-hydroxy-4-(hydroxymethyl)piperidin-1-yl)methanone] | 25 to 200 nM | 
COc1ccc(-n2nc(Br)c3cnc(N[C@@H]4CC[C@@H](C(=O)N5CCN(C)C(=O)C5)C4)nc32)cc1C#N [5-(3-bromo-6-(((1R,3R)-3-(4-methyl-3-oxo-piperazine-1-carbonyl)cyclopentyl)amino)-1H-pyrazolo[3,4-d]pyrimidin-1-yl)-2-methoxybenzonitrile] | 200 to 500 nM | 
N#CC1CN(C(=O)[C@@H]2CC[C@@H](Nc3ncc4c(Br)cn(-c5cc(F)c6ncccc6c5)c4n3)C2)C1 [1-((1R,3R)-3-((5-bromo-7-(8-fluoroquinolin-6-yl)-7H-pyrrolo[2,3-d]pyrimidin-2-yl)amino)cyclopentane-1-carbonyl)azetidine-3-carbonitrile] | < 25 nM | 
CNC(=O)[C@]1(C)CC[C@@H](Nc2ncc3c(Br)nn(-c4ccc(-c5nnc(C(=O)N6CCOCC6)s5)cc4)c3n2)C1 [(1R,3R)-3-[[3-bromo-1-[4-[5-(morpholine-4-carbonyl)-1,3,4-thiadiazol-2-yl]phenyl]pyrazolo[3,4-d]pyrimidin-6-yl]amino]-N,1-dimethyl-cyclopentanecarboxamide] | 25 to 200 nM | 
CNC(=O)[C@]1(C)CC[C@@H](Nc2ncc3c(Br)nn(-c4cc(CC5(N)CC5)c5ncccc5c4)c3n2)C1 [(1R,3R)-3-[[1-[8-[(1-aminocyclopropyl)methyl]-6-quinolyl]-3-bromo-pyrazolo [3,4-d]pyrimidin-6-yl]amino]-N,1-dimethyl-cyclopentanecarboxamide] | 25 to 200 nM | 
CNC(=O)[C@]1(C)CC[C@@H](Nc2ncc3c(Br)nn(-c4ccc5nc(N6CCNCC6)ncc5c4)c3n2)C1 | < 25 nM | 
CNC(=O)[C@]1(C)CC[C@@H](Nc2ncc3c(Br)nn(-c4ccc(-c5nnc(C)o5)c(CCO)c4)c3n2)C1 [(1R,3R)-3-[[3-bromo-1-[3-(2-hydroxyethyl)-4-(5-methyl-1,3,4-oxadiazol-2-yl)phenyl]pyrazolo[3,4-d]pyrimidin-6-yl]amino]-N,1-dimethyl-cyclopentanecarboxamide] | 25 to 200 nM | 
CNC(=O)[C@]1(C)CC[C@@H](Nc2ncc3c(Br)nn(-c4cc(CS(C)(=O)=O)c5nccnc5c4)c3n2)C1 [(1R,3R)-3-[[3-bromo-1-[8-(methyl-sulfonylmethyl)quinoxalin-6-yl]pyrazolo [3,4-d]pyrimidin-6-yl]amino]-N,1-dimethyl-cyclopentanecarboxamide] | 25 to 200 nM | 
C[C@H]1CN(C(=O)[C@@H]2CC[C@@H](Nc3ncc4c(Br)nn(-c5ccc6ncccc6c5)c4n3)C2)C[C@H](C)O1 [((1R,3R)-3-((3-bromo-1-(quinolin-6-yl)-1H-pyrazolo[3,4-d]pyrimidin-6-yl)amino)cyclo-pentyl)((2S,6S)-2,6-dimethylmorpholino) methanone] | 25 to 200 nM | 
CNC(=O)[C@]1(C)CCC(Nc2ncc3c(Br)nn(-c4ccc5c(c4)CNC5=O)c3n2)C1 (stereo partly drawn) [(1R)-3-[[3-bromo-1-(1-oxoisoindolin-5-yl)pyrazolo[3,4-d]pyrimidin-6-yl]amino]-N,1-dimethyl-cyclopentanecarboxamide] | 25 to 200 nM | 
CNC(=O)[C@]1(C)CC[C@@H](Nc2ncc3c(Br)nn(-c4cc(C5CCNC5)c5ncccc5c4)c3n2)C1 (stereo partly drawn) [(1R,3R)-3-[[3-bromo-1-(8-pyrrolidin-3-yl-6-quinolyl)pyrazolo[3,4-d]pyrimidin-6-yl]amino]-N,1-dimethyl-cyclopentane-carboxamide] | < 25 nM | 
CP(C)(=O)[C@@H]1CC[C@@H](Nc2ncc3c(Br)nn(-c4cc(C#N)cc(OCC5(F)CNC5)c4)c3n2)C1 [3-[3-bromo-6-[[(1R,3R)-3-dimethylphosphorylcyclopentyl]amino]pyrazolo[3,4-d]pyrimidin-1-yl]-5-[(3-fluoroazetidin-3-yl)methoxy]benzonitrile] | 25 to 200 nM | 
Cc1nnc(-c2ccc(-n3nc(Br)c4cnc(N[C@@H]5CC[C@@](C)(N(C)C)C5)nc43)cc2CCC#N)s1 [3-[5-[3-bromo-6-[[(1R,3R)-3-(dimethylamino)-3-methyl-cyclopentyl]amino]pyrazolo[3,4-d]pyrimidin-1-yl]-2-(5-methyl-1,3,4-thiadiazol-2-yl)phenyl]propanenitrile] | 25 to 200 nM | 
CNC(=O)[C@]1(C)CC[C@@H](Nc2ncc3c(Br)nn(-c4cc(Cl)cc(CCS(C)(=O)=O)c4)c3n2)C1 | 25 to 200 nM | 
CS(=O)(=O)CCNC(=O)[C@@H]1CC[C@@H](Nc2ncc3c(Br)nn(-c4ccc5ncc(F)cc5c4)c3n2)C1 | 200 to 500 nM | 
